The values below come from PubChem BioAssay AID1745844 (Carcinogenic Potency Database (CPDB), 2022).

Calls of active or inactive are those of the source. The rule behind the calls is not given here.

In this series the test system is rodent lifetime carcinogenesis bioassay, tumor incidence TD50. The experiment in a line: chronic cancer bioassays in animals – CPDB, compiled studies (AID 1745844).

What is called TD50 is the 50% point of the dose-response relation for the toxic effect studied. With `O=CC(O)C(O)C(O)C(O)CO` (stereo not drawn), the carcinogen call (mouse, strain AP Alderly Park, females, in feed, site: any site (literature study), lesion: several types, types named in the paper, dosed 100 weeks, study length 100 weeks) was “negative (inactive)”; the carcinogen call (mouse, strain AP Alderly Park, females, in feed, site: lung, lesion: adenoma, dosed 100 weeks, study length 100 weeks) is “negative (inactive)”; the carcinogen call (mouse, strain AP Alderly Park, males, in feed, site: liver, lesion: hepatoma, dosed 100 weeks, study length 100 weeks) was “negative (inactive)”; the carcinogen call (mouse, strain AP Alderly Park, males, in feed, site: lung, lesion: adenoma, dosed 100 weeks, study length 100 weeks) is “negative (inactive)”; the carcinogen call (rat, strain AP Alderly Park, females, in feed, site: liver, lesion: one or several types, types not named, dosed 104 weeks, study length 104 weeks) was “negative (inactive)”; the carcinogen call (rat, strain AP Alderly Park, males, in feed, site: any site (literature study), lesion: several types, types named in the paper, dosed 104 weeks, study length 104 weeks) was “negative (inactive)”. Besides, the TD50 runs as follows: (mouse, strain AP Alderly Park, females, in feed, site: liver, lesion: hepatoma, dosed 100 weeks, study length 100 weeks) 538000 mg/kg/day (inactive); (mouse, strain AP Alderly Park, males, in feed, site: any site (literature study), lesion: several types, types named in the paper, dosed 100 weeks, study length 100 weeks) 132000 mg/kg/day (inactive); (rat, strain AP Alderly Park, females, in feed, site: any site (literature study), lesion: several types, types named in the paper, dosed 104 weeks, study length 104 weeks) 7790 mg/kg/day (inactive); (rat, strain AP Alderly Park, males, in feed, site: liver, lesion: hepatoma, dosed 104 weeks, study length 104 weeks) 133000 mg/kg/day (inactive).

Take `O=c1c(CO)c/c(=N/Nc2ccc(S(=O)(=O)O)c3ccccc23)c(=O)/c1=N/Nc1ccc(S(=O)(=O)O)c2ccccc12`: the TD50 runs as follows: (mouse, strain Tuck, females, in feed, site: all sites, lesion: lymphosarcoma, dosed 80 weeks, study length 80 weeks) 36.3 mg/kg/day (inactive); (mouse, strain Tuck, females, in feed, site: liver, lesion: hyperplastic nodule, dosed 80 weeks, study length 80 weeks) 8440 mg/kg/day (inactive); (mouse, strain Tuck, males, in feed, site: liver, lesion: hyperplastic nodule, dosed 80 weeks, study length 80 weeks) 106000 mg/kg/day (inactive). In addition, the carcinogen call was “negative (inactive)” (mouse, strain Tuck, females, in feed, site: lung, lesion: adenoma, dosed 80 weeks, study length 80 weeks); “negative (inactive)” (mouse, strain Tuck, males, in feed, site: liver, lesion: liver-cell adenoma, dosed 80 weeks, study length 80 weeks); “negative (inactive)” (mouse, strain Tuck, males, in feed, site: lung, lesion: adenoma, dosed 80 weeks, study length 80 weeks).

Turning to `CC(O)CN(CCO)N=O` (stereo not drawn), the TD50 is, setting by setting: (rat, strain Fischer 344, females, in drinking water, site: esophagus, lesion: several types, types named in the paper, dosed 50 weeks, study length 75 weeks) 6.74 mg/kg/day; (rat, strain Fischer 344, females, in drinking water, site: liver, lesion: angiosarcoma, dosed 50 weeks, study length 75 weeks) 4.5 mg/kg/day; (rat, strain Fischer 344, females, in drinking water, site: liver, lesion: hepatocellular carcinoma, dosed 50 weeks, study length 75 weeks) 1.02 mg/kg/day; (rat, strain Fischer 344, females, in drinking water, site: liver, lesion: several types, types named in the paper, dosed 50 weeks, study length 75 weeks) 1.12 mg/kg/day; (rat, strain Fischer 344, females, in drinking water, site: nasal cavity, lesion: olfactory carcinoma, dosed 50 weeks, study length 75 weeks) 5.44 mg/kg/day.

Regarding `O=C1CCCCCN1`, the carcinogen call (mouse, strain B6C3F1, females, in feed, site: any site (literature study), lesion: several types, types named in the paper, dosed 103 weeks, study length 105 weeks) is “negative (inactive)”; the carcinogen call (mouse, strain B6C3F1, males, in feed, site: any site (literature study), lesion: several types, types named in the paper, dosed 103 weeks, study length 105 weeks) is “negative (inactive)”; the carcinogen call (rat, strain Fischer 344, females, in feed, site: any site (literature study), lesion: several types, types named in the paper, dosed 103 weeks, study length 105 weeks) was “negative (inactive)”. The TD50 (mouse, strain B6C3F1, males, in feed, site: liver, lesion: hepatocellular adenoma + hepatocellular carcinoma + neoplastic nodule, dosed 103 weeks, study length 105 weeks) was 34300 mg/kg/day; the TD50 (rat, strain Fischer 344, males, in feed, site: liver, lesion: hepatocellular adenoma + hepatocellular carcinoma + neoplastic nodule, dosed 103 weeks, study length 105 weeks) was found to be 5690 mg/kg/day; the TD50 (rat, strain Fischer 344, males, in feed, site: pituitary gland, lesion: carcinoma, NOS, dosed 103 weeks, study length 105 weeks) was 3560 mg/kg/day (inactive).

Take `CC(O)CN(CC(C)O)N=O` (stereo not drawn): the TD50 (rat, strain Fischer 344, females, in drinking water, site: esophagus, lesion: carcinoma, dosed 42 weeks, study length 55 weeks) amounted to 1.25 mg/kg/day; the TD50 (rat, strain Fischer 344, females, in drinking water, site: esophagus, lesion: several types, types named in the paper, dosed 42 weeks, study length 55 weeks) was 0.813 mg/kg/day; the TD50 (rat, strain Fischer 344, females, in drinking water, site: nasal cavity, lesion: olfactory carcinoma, dosed 42 weeks, study length 55 weeks) was 3.04 mg/kg/day; the TD50 (rat, strain MRC-Wistar, males, by gavage, site: prostate, lesion: carcinoma, dosed 74 weeks, study length 74 weeks) is 437 mg/kg/day; the TD50 (rat, strain Wistar, males, in drinking water, site: liver, lesion: hemangioma, dosed 45 weeks, study length 52 weeks) stood at 4.55 mg/kg/day; the TD50 (rat, strain Wistar, males, in drinking water, site: liver, lesion: hepatocellular carcinoma, dosed 45 weeks, study length 52 weeks) is 2.4 mg/kg/day. Further, the TD50 (rat, strain Wistar, males, in drinking water, site: lung, lesion: adenocarcinoma, dosed 45 weeks, study length 52 weeks) was 3.36 mg/kg/day; the TD50 (rat, strain Wistar, males, in drinking water, site: lung, lesion: adenoma, dosed 45 weeks, study length 52 weeks) is 0.881 mg/kg/day; the TD50 (rat, strain Wistar, males, in drinking water, site: lung, lesion: carcinoma, combined glandular and squamous type, dosed 45 weeks, study length 52 weeks) is 9.48 mg/kg/day.

Consider `Nc1nc(-c2ccc([N+](=O)[O-])cc2)cs1`, for which the TD50 was 9.95 mg/kg/day (mouse, strain Swiss, females, in feed, site: all sites, lesion: lymphocytic leukemia, dosed 46 weeks, study length 66 weeks) and 9.95 mg/kg/day (mouse, strain Swiss, females, in feed, site: any site (literature study), lesion: several types, types named in the paper, dosed 46 weeks, study length 66 weeks).
